Measurements: the NIST ThermoML archive (doi:10.1016/j.jct.2007.04.005)

Experiment: xn = mol fraction of the nth substance listed
Settings: 328.15 K, Liquid

CCCCCCCCC [nonane] + C1CCCCC1
Settings	mass density [kg/m3]
100 kPa, x2 = 0	690.5
100 kPa, x2 = 0.09303	693.4
100 kPa, x2 = 0.2009	697
100 kPa, x2 = 0.3051	700.9
100 kPa, x2 = 0.417	705.3
100 kPa, x2 = 0.512	709.7
100 kPa, x2 = 0.5996	714.5
100 kPa, x2 = 0.7052	720.8
100 kPa, x2 = 0.7993	727.5
100 kPa, x2 = 0.9039	735.7
101 kPa, x2 = 0	690.88
101 kPa, x2 = 0.1022	693.98
101 kPa, x2 = 0.1548	695.7
101 kPa, x2 = 0.2009	697.27
101 kPa, x2 = 0.2591	699.37
101 kPa, x2 = 0.3306	702.13
101 kPa, x2 = 0.4003	705.03
101 kPa, x2 = 0.4596	707.71
101 kPa, x2 = 0.5321	711.23
101 kPa, x2 = 0.612	715.53
101 kPa, x2 = 0.6649	718.62
101 kPa, x2 = 0.7224	722.28
101 kPa, x2 = 0.8047	728.07
101 kPa, x2 = 0.8686	733.12
101 kPa, x2 = 0.9405	739.53
2130 kPa, x2 = 0	691.4
2130 kPa, x2 = 0.09303	694.3
2130 kPa, x2 = 0.2009	697.9
2130 kPa, x2 = 0.3051	701.8
2130 kPa, x2 = 0.417	706.3
2130 kPa, x2 = 0.512	710.7
2130 kPa, x2 = 0.5996	715.6
2130 kPa, x2 = 0.7052	721.9
2130 kPa, x2 = 0.7993	728.6
2130 kPa, x2 = 0.9039	737
4150 kPa, x2 = 0	694.4
4150 kPa, x2 = 0.09303	697.3
4150 kPa, x2 = 0.2009	700.9
4150 kPa, x2 = 0.3051	704.8
4150 kPa, x2 = 0.417	709.3
4150 kPa, x2 = 0.512	713.7
4150 kPa, x2 = 0.5996	718.6
4150 kPa, x2 = 0.7052	724.9
4150 kPa, x2 = 0.7993	731.6
4150 kPa, x2 = 0.9039	739.9
6180 kPa, x2 = 0	696.3
6180 kPa, x2 = 0.09303	699.2
6180 kPa, x2 = 0.2009	702.8
6180 kPa, x2 = 0.3051	706.7
6180 kPa, x2 = 0.417	711.2
6180 kPa, x2 = 0.512	715.6
6180 kPa, x2 = 0.5996	720.5
6180 kPa, x2 = 0.7052	726.9
6180 kPa, x2 = 0.7993	733.5
6180 kPa, x2 = 0.9039	741.9
8210 kPa, x2 = 0	698.1
8210 kPa, x2 = 0.09303	701
8210 kPa, x2 = 0.2009	704.7
8210 kPa, x2 = 0.3051	708.6
8210 kPa, x2 = 0.417	713.1
8210 kPa, x2 = 0.512	717.5
8210 kPa, x2 = 0.5996	722.4
8210 kPa, x2 = 0.7052	728.8
8210 kPa, x2 = 0.7993	735.5
8210 kPa, x2 = 0.9039	743.9
10230 kPa, x2 = 0	699.9
10230 kPa, x2 = 0.09303	702.8
10230 kPa, x2 = 0.2009	706.5
10230 kPa, x2 = 0.3051	710.4
10230 kPa, x2 = 0.417	714.9
10230 kPa, x2 = 0.512	719.3
10230 kPa, x2 = 0.5996	724.3
10230 kPa, x2 = 0.7052	730.7
10230 kPa, x2 = 0.7993	737.3
10230 kPa, x2 = 0.9039	745.8
11250 kPa, x2 = 0	700.8
11250 kPa, x2 = 0.09303	703.7
11250 kPa, x2 = 0.2009	707.4
11250 kPa, x2 = 0.3051	711.3
11250 kPa, x2 = 0.417	715.8
11250 kPa, x2 = 0.512	720.2
11250 kPa, x2 = 0.5996	725.2
11250 kPa, x2 = 0.7052	731.6
11250 kPa, x2 = 0.7993	738.3
11250 kPa, x2 = 0.9039	746.7
12260 kPa, x2 = 0	701.7
12260 kPa, x2 = 0.09303	704.6
12260 kPa, x2 = 0.2009	708.3
12260 kPa, x2 = 0.3051	712.2
12260 kPa, x2 = 0.417	716.7
12260 kPa, x2 = 0.512	721.1
12260 kPa, x2 = 0.5996	726.1
12260 kPa, x2 = 0.7052	732.5
12260 kPa, x2 = 0.7993	739.2
12260 kPa, x2 = 0.9039	747.7
14290 kPa, x2 = 0	703.4
14290 kPa, x2 = 0.09303	706.3
14290 kPa, x2 = 0.2009	710.1
14290 kPa, x2 = 0.3051	714
14290 kPa, x2 = 0.417	718.5
14290 kPa, x2 = 0.512	722.9
14290 kPa, x2 = 0.5996	727.9
14290 kPa, x2 = 0.7052	734.4
14290 kPa, x2 = 0.7993	741
14290 kPa, x2 = 0.9039	749.5
16310 kPa, x2 = 0	705.1
16310 kPa, x2 = 0.09303	708
16310 kPa, x2 = 0.2009	711.8
16310 kPa, x2 = 0.3051	715.7
16310 kPa, x2 = 0.417	720.2
16310 kPa, x2 = 0.512	724.6
16310 kPa, x2 = 0.5996	729.7
16310 kPa, x2 = 0.7052	736.1
16310 kPa, x2 = 0.7993	742.8
16310 kPa, x2 = 0.9039	751.3
18340 kPa, x2 = 0	706.8
18340 kPa, x2 = 0.09303	709.6
18340 kPa, x2 = 0.2009	713.4
18340 kPa, x2 = 0.3051	717.3
18340 kPa, x2 = 0.417	721.9
18340 kPa, x2 = 0.512	726.3
18340 kPa, x2 = 0.5996	731.4
